Source: paper PMC2832019, “In Vitro Metabolic and Mitogenic Signaling of Insulin Glargine and Its Metabolites” (PLoS ONE, 2010)

What was measured:
[1] = tested on: primary rat adipocytes; test: Metabolic activity: insulin-stimulated lipid synthesis in primary rat adipocytes; type: cell-based, rat (Sprague-Dawley); details: for lipid synthesis EC50 higher relative to human insulin: fold higher EC50 relative to insulin; for EC50: incorporation of [3-^3H]glucose into toluene-extractable lipids, 90 min at 37°C, pH 7.4, means ± SEM, five different adipocyte preparations, read-out: Metabolic potency EC50; for metabolic activity, EC50 lower than M1: relative to M1
Protocol: The metabolic activity of the different insulins was compared using insulin-stimulated lipid synthesis in primary rat adipocytes. Primary rat adipocytes were prepared according to published procedures, [33]. Briefly, rats (Sprague-Dawley, male, 140–160 g, fed ad libitum) were provided from Charles-River (Sulzfeld, Germany) and killed by cervical dislocation in accordance with the German animal protection law. The animals were used for the preparation of primary adipocytes, exclusively, and were not subjected to any pretreatment, such as drug administration or starvation. Epididymal fat pads were rapidly removed, stripped of blood vessels and placed in PBS. Subsequently, the pads were washed with KRBB bubbled with 5% O2/95% CO2. Each pad was then cut into two or three pieces. Two pieces of each were incubated with 1.5 mL of digestion buffer (10 mg collagenase [Worthington Inc., CLS, type I, 190 units/mg] in 10 ml of KRBB containing 9 mg glucose) for 15–30 min at 37°C in a shaking water bath (240 cycles/min). Released adipocytes were separated from residual undigested tissue by passage through a nylon web (mesh size 150 µm) and washed by flotation in a plastic tube two or three times with KRBB and adjusted to the appropriate titer of 3.5×10^5 cells/mL. For distribution of the adipocytes, 200 µL of the suspension was removed under continuous gentle stirring with a plastic agitator.
Lipid synthesis was measured as the incorporation of [3-^3H]glucose into toluene-extractable lipids, at a final cell titer of […] in KRBB (1.2 mM KH2PO4, 1.2 mM MgSO4, 4.8 mM KCl, 25 mM NaHCO3, 120 mM NaCl, 2.4 mM CaCl2, containing 1% BSA [defatted, fraction V, Sigma, Deisenhofen, Germany] and 37 µM glucose and adjusted to pH 7.4) according to published procedures (Müller et al., 2008) with the following modifications: 680 µL of KRBB were filled into 10-mL scintillation vials and supplemented with 100 µL of D-[3-^3H]glucose (2 µCi/mL KRBB, 1 mM, Amersham-Buchler, Braunschweig, Germany) and 20 µL of insulin solution in KRBB. Lipid synthesis was started by the addition of 200 µL of adipocyte suspension in KRBB. After incubation for 90 min at 37°C under an atmosphere of 5% O2/95% CO2 and gentle shaking, 10 mL of toluene-based scintillation cocktail (Quickszint 501, Zinsser, Germany) was added. The samples were vigorously mixed and after phase separation (2 to 4 h) measured for radioactivity by liquid scintillation counting. Determination of the radioactivity contained in the toluene phase and corrected for non-specific spill-over of the radioactivity of unincorporated radiolabelled glucose contained in the water phase predominantly reflects the de novo lipid synthesis.
(§1) For each experiment, IC50 or EC50 values were obtained using the 4-parameter logistic model according to Ratkowsky and Reedy (1986). The adjustment was obtained by non-linear regression using the Levenberg-Marquardt algorithm in SAS v9.1.3 software via Biost@t-Speed V2.0-LTS internal application. If necessary, lower and upper asymptotes were set to 0 and 100, respectively.
Figure 3 Metabolic activity of insulin glargine and its metabolites in rat adipocytes. To compare the metabolic activity of glargine and its metabolites insulin-stimulated lipid synthesis in isolated primary rat adipocytes was analyzed by incorporation of [3-^3H]glucose into toluene-extractable lipids and subsequent measurement of radioactivity by liquid scintillation counting. The adipocytes were treated with increasing concentrations of insulin, analogs, metabolites or IGF-1 for 90 min at 37°C in the presence of [3-^3H]glucose. Each point represents the mean ± SEM of five different adipocyte preparations with activity measurements done in duplicate.

[2] = tested on: human IR-A; test: IR-A autophosphorylation (In-Cell Western); type: cell-based; details: for EC50: CHO cells overexpressing IR-A, 15 min at 37°C, In-Cell Western, means ± SEM, at least three times, read-out: IR-A auto-phosphorylation EC50
Description: CHO cells expressing either the IR-A or the IR-B isoform were used for IR autophosphorylation assays using In-Cell Western. For the analysis of IGF1R autophosphorylation the receptor was overexpressed in a mouse embryo fibroblast 3T3 Tet off cell line (BD Bioscience, Heidelberg, Germany) that was stably transfected with IGF1R tetracycline-regulatable expression plasmid resulting in the expression of ∼2.6×10^5 IGF1R per cell (as determined by FACS analysis, unpublished data). In order to determine the receptor tyrosine phosphorylation level, cells were seeded into 96-well plates and grown for 48 h. Cells were serum starved with serum-free medium αMEM (PAN Biotech GmbH, Aidenbach, Germany) for 3–4 h. […] After incubation the medium was discarded and the cells were fixed in 3.75% freshly prepared para-formaldehyde for 20 min. Cells were permeabilized with 0.1% Triton-X-100 in PBS for 20 min. Blocking was performed with Odyssey blocking buffer (LI-COR, Bad Homburg, Germany) overnight at 4°C. Anti-pTyr 4G10 (Millipore, Schwalbach, Germany) was incubated for 2 h at room temperature. After incubation of the primary antibody, cells were washed with PBS+0.1% Tween20. The secondary anti-mouse-IgG-800-CW antibody (Rockland, Gilbertsville, PA, USA) was incubated for 1 h. Results were normalized by the quantification of DNA with TO-PRO3 dye (Invitrogen, Karlsruhe, Germany). Data were obtained as relative units (RU) and are presented as fold over basal.
as §1
The binding of a constant concentration of [^125I]insulin to plasma membranes from CHO cells overexpressing either IR-A or IR-B was measured in presence of increasing concentrations of unlabeled competing ligand after incubation at room temperature for 12 h. All data has been corrected for non-specific binding and are expressed as percentage of [^125I]insulin in absence of competing ligand. To analyze the insulin-stimulated activation and subsequent autophosphorylation of the insulin receptor CHO cells overexpressing the human IR-A (C) or IR-B (D) were stimulated for 15 min at 37°C with increasing concentrations of peptides, then the cells were fixed with 3.7% PFA and the amount of phosphotyrosines was analyzed via In-Cell Western. The data represent mean values ± SEM of at least 3 individual experiments measured in quadruplicate.
Insulin receptor autophosphorylation was studied using CHO cells overexpressing either IR-A or IR-B. For detection an immunocytochemical microplate assay (In-Cell Western) based on two-colour fluorescence was applied.

Row | Substance | EC50 [1] [nM] | EC50 [2] [nM] | metabolic activity, EC50 lower than M1 [1] [fold] | lipid synthesis EC50 higher relative to human insulin [1] [fold] | decrease in IR-A autophosphorylation activity ([2]; relative to human insulin)
1 | [Gly^A21,Arg^B31,Arg^B32]insulin [Glargine] | 0.066 ± 0.005 | 18.4 ± 2.4 |  | 1.4 | 30–50%
2 | [Gly^A21,des-Thr^B30]insulin [Glargine M2] | 0.087 ± 0.007 | 19.2 ± 1.6 | 0.6 |  | 
3 | [Gly^A21]insulin [Glargine M1] | 0.139 ± 0.009 | 18.6 ± 2.5 |  | 3.0 | 
4 | [Asp^B10]insulin | 0.031 ± 0.005 | 5.1 ± 0.7 |  |  | 
5 | Human insulin: human insulin produced by recombinant DNA techniques or enzymatic semisynthesis | 0.045 ± 0.003 | 11 ± 1.3 |  |  | 

Second part, led by results:

Row | EC50 [1] [nM] | EC50 [2] [nM] | metabolic activity, EC50 lower than M1 [1] [fold] | Substance | lipid synthesis EC50 higher relative to human insulin [1] [fold] | decrease in IR-A autophosphorylation activity ([2]; relative to human insulin)
6 | 19 ± 0.93 | 449 ± 61.7 |  | IGF-1: IGF-1 obtained from R&D Systems and Cell Sciences | 422 | 
7 | 0.098 ± 0.012 | 23.1 ± 2.7 | 0.6 | [Gly^A21,Arg^B31]insulin [Glargine IM] |  | 
